According to PMC8554850, “Allergens of the urushiol family promote mitochondrial dysfunction by inhibiting the electron transport at the level of cytochromes b and chemically modify cytochrome c1” (Biological Research, 2021):

Legend:
cytochrome c1 = target: T1, cytochrome c1 (Bos taurus, UniProt P00125); assay: tritium labelling of mitochondria, 1D and 2D-PAGE photofluorography, western blot, tryptic mass fingerprint; assay type: binding; conditions: covalent; labelled compound; 5 µM, 30 min, 25 °C, then chased with 1 mM cold litreol; Lys202 and N-terminal peptide proposed
T1 construct: gene CYC1; native, in isolated heart mitochondria (complex III, inner membrane); about 27 kD on SDS-PAGE; printed peptides SDLELHPPSYPWSHR (1-15) and WAAEPEHDHRK (192-202)
T1 sequence (P00125 85-325): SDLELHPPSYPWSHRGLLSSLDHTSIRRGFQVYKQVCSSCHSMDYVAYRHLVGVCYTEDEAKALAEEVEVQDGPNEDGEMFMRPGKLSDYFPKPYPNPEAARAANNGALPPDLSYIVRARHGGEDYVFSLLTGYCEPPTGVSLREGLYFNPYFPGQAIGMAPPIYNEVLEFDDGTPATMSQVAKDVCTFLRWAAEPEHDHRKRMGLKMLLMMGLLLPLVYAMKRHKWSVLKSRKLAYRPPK

[1] = target: T2, complex III (cytochrome bc1) (Rattus norvegicus, UniProt P00159); assay: duroquinol:cytochrome c reduction, Hanes-Woolf; cytochrome b redox spectrophotometry; assay type: biochemical
T2 construct: gene Mt-cyb; native complex III in liver mitochondria / submitochondrial particles; with Cytochrome c1, heme protein, mitochondrial; Cytochrome b-c1 complex subunit Rieske, mitochondrial
T2 sequence (P00159 whole entry): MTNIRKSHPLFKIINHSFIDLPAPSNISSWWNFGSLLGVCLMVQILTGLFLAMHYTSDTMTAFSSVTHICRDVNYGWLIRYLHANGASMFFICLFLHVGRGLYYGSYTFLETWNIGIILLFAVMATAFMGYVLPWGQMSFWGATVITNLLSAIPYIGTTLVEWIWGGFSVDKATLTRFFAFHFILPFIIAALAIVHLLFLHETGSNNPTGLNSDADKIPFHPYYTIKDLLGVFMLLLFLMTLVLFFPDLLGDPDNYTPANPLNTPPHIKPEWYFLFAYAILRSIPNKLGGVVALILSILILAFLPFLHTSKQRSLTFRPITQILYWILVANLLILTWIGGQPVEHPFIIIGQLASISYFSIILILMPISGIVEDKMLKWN
T2 sequence (D3ZFQ8 87-326 partner): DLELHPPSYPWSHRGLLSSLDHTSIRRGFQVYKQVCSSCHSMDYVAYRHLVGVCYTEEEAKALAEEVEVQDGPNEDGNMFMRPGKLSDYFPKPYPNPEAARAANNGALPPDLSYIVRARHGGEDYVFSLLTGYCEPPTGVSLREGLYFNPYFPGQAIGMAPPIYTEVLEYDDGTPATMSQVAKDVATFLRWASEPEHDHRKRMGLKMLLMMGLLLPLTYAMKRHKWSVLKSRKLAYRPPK
T2 sequence (P20788 79-274 partner): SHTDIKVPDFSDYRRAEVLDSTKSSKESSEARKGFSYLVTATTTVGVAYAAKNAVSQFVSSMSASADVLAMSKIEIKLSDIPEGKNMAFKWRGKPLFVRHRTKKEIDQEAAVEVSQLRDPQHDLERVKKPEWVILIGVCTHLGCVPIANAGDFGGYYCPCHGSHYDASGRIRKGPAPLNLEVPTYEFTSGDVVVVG

Q: Which “tritium labelling of mitochondria, 1D and 2D-PAGE photofluorography, western blo” value (cytochrome c1) does the source give for `CCCCCCCCCCCCCCCc1cccc(O)c1O` [3H-litreol] here?
A: The value was “Litreol binds to an inner mitochondrial membrane protein from bovine heart mitochondria”.

Q: How did the “duroquinol:cytochrome c reduction, Hanes-Woolf; cytochrome b redox spectrophotom” value ([1]; electron donor, acceptor cytochrome c) turn out when `Cc1c(C)c(O)c(C)c(C)c1O` [duroquinol] was run?
A: The value was “The enzyme kinetics of complex III for Dur and cytochrome c were measured”.

Q: With `CCCC/C=C\CCCCCCCCCc1cccc(O)c1O` [litreol, 3-(10-Z-pentadecenyl)-catechol] as the compound, how does the “duroquinol:cytochrome c reduction, Hanes-Woolf; cytochrome b redox spectrophotom” value ([1]; noncompetitive vs duroquinol and cytochrome c, 10 µM litreol, electron flow halted between bL and bH, pH 7.4) read?
A: The value was “Litreol is a noncompetitive inhibitor of complex III at the level of the cytochrome bc1”.
